“Also recorded” adds a separate entry of the source.
Assays:
[1] = Solid state stability assessment under accelerated conditions; format: physicochemical; conditions: for XRPD after solid state physical stability assessment: 8 weeks under stress conditions; for chemical and physical stability after 8 weeks: 25° C./60% RH (open), 40° C. (closed), 60° C. (closed), 40° C./75% RH (open)
Experimental: Solid state stability assessment of AMG 176 Form 1 was conducted at 25° C./60% RH (open), 40° C. (closed), 60° C. (closed), and 40° C./75% RH (open) accelerated conditions to determine the chemical and physical stability of AMG 176.
Solid state stability assessment of AMG 176 amorphous material and Form 1 was conducted at 25° C./60% RH (open), 40° C. (closed), 60° C. (closed), and 40° C./75% RH (open) accelerated conditions to determine the chemical and physical stability of AMG 176.

Moisture sorption (DVS) = format: physicochemical; conditions: for hygroscopicity (in words): DVS up to 95% RH; for XRPD of the post-DVS material: after DVS cycle
Experimental: Moisture Sorption: Moisture sorption data was collected at 25° C. using a VTI vapor sorption analyzer. A sample size of approximately 4-10 mg was used in a standard platinum pan. Hygroscopicity was evaluated from 5 to 95% RH in increments of 5% RH. Data for adsorption and desorption cycles were collected. Equilibrium criteria were set at 0.001% weight change in 10 minute with a maximum equilibration time of 180 minutes.

[2] = Dog PK studies, amorphous versus crystalline suspension; format: in vivo; conditions: AMG 176 dosed as an amorphous suspension as compared to the crystalline suspension
Description: AMG 176 Form 1 has acceptable pharmaceutical and physical properties, can be scaled to kilogram quantities, and can be compounded during drug product formulating as an in situ sodium salt to achieve desired drug concentrations to enable IV delivery. AMG 176 can also be converted to amorphous material to support oral dosing, if desired, depending on the dosing range. […] While improved exposures were observed by dosing the amorphous material, the exposures would likely plateau if gram level doses are need for oral delivery.

[3] = DVS, 25° C., adsorption 5% to 95% RH

Row | Compound | XRPD after solid state physical stability assessment ([1]; listed as crystalline Form 1 of AMG 176) | chemical and physical stability after 8 weeks [1] | hygroscopicity (in words) (Moisture sorption (DVS)) | water vapor uptake between 5% and 95% RH (Moisture sorption (DVS); [3]) [%] | XRPD of the post-DVS material (Moisture sorption (DVS)) | XRPD after solid state physical stability assessment [1] | water vapor uptake (weight gain) between 5% and 95% RH (Moisture sorption (DVS); [3]) [wt %] | water vapor uptake (weight gain) between 5% and 95% RH (Moisture sorption (DVS); DVS, 25° C., adsorption 5% to 95% RH, listed as amorphous form of AMG 176) | weight gain at 95% RH (Moisture sorption (DVS); DVS, 95% relative humidity) [%] | weight lost upon desorption (Moisture sorption (DVS); DVS, desorption cycle, likely loss of residual DCM and/or water) [%] | XRPD of the post-DVS material (Moisture sorption (DVS); listed as amorphous form of AMG 176) | improvement of absorption [2] [×]
1 | CO[C@H]1/C=C/C[C@H](C)[C@@H](C)S(=O)(=O)NC(=O)c2ccc3c(c2)N(C[C@@H]2CC[C@H]21)C[C@@]1(CCCc2cc(Cl)ccc21)CO3 [AMG 176 Form 1] | Form conversion was not observed | physically and chemically stable | low hygroscopicity; also recorded: non-hygroscopic | 0.3 | no form change | – | – | – | – | – | – | –
2 | CO[C@H]1/C=C/C[C@H](C)[C@@H](C)S(=O)(=O)NC(=O)c2ccc3c(c2)N(C[C@@H]2CC[C@H]21)C[C@@]1(CCCc2cc(Cl)ccc21)CO3 [Amorphous AMG 176] | – | physically and chemically stable | limited hygroscopicity | – | consistent with amorphous material | Crystallization not observed | 0.95 | about 0.95 wt % | 0.95 | 1.59 | consistent with amorphous material | –
3 | CO[C@H]1/C=C/C[C@H](C)[C@@H](C)S(=O)(=O)NC(=O)c2ccc3c(c2)N(C[C@@H]2CC[C@H]21)C[C@@]1(CCCc2cc(Cl)ccc21)CO3 [AMG 176, (1S,3′R,6′R,7′S,8′E,11′S,12′R)-6-chloro-7′-methoxy-11′,12′-dimethyl-3,4-dihydro-2H,15′H-spiro[naphthalene-1,22′-[20]oxa[13]thia[1,14]diazatetracyclo[14.7.2.0^3,6.O^19,24]pentacosa[8,16,18,24]tetraen]-15′-one 13′,13′-dioxide] | – | – | – | – | – | – | – | – | – | – | – | 10

— patent publication US20240140966A1, “AMORPHOUS AND CRYSTALLINE FORMS OF MCL-1 ANTAGONISTS” (AMGEN INC., priority 2022, published 2024)
